Source: PMC11509018, “Evaluation of the Role of Tanshinone I in an In Vitro System of Charcot-Marie-Tooth Disease Type 2N” (International Journal of Molecular Sciences, 2024)
Numbering of substitutions follows the chain as printed.

Key:
AlaRS^N71Y = biological target: T1, AlaRS^N71Y (Homo sapiens, UniProt P49588, N71Y); assay: Proteolytic digestion assay (trypsin, SDS-PAGE); details: three hours
T1 construct: made in house; host or cells: E. coli BL21 (DE3), pET-21a
T1 sequence (P49588 1-968 N71Y): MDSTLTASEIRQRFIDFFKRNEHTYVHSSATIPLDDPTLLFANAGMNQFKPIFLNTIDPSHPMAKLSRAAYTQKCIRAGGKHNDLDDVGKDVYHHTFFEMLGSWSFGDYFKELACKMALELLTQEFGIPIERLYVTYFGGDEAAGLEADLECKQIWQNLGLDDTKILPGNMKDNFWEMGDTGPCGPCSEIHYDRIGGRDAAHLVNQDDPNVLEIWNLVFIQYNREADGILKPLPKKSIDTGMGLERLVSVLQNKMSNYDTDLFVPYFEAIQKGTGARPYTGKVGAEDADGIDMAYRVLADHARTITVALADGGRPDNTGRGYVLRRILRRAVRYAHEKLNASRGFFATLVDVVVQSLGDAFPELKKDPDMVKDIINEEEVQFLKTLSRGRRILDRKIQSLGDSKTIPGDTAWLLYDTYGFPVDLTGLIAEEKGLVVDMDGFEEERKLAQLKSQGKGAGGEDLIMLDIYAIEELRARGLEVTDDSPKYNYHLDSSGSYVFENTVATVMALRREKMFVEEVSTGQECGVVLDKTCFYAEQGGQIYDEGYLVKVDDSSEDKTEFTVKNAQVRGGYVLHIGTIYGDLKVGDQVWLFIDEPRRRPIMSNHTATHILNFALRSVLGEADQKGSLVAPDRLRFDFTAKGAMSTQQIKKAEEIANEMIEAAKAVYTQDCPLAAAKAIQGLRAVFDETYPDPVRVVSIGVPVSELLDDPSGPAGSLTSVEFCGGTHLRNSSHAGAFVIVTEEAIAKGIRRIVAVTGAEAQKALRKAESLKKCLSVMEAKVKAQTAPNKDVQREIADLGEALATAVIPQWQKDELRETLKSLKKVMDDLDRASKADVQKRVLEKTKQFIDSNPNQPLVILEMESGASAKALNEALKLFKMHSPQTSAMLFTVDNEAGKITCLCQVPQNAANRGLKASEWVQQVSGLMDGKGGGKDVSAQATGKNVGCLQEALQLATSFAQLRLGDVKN
Source text: (§1) Furthermore, we examined the interaction of Tanshinone I with additional AlaRS CMT mutants capable of binding to Nrp1 and causing conformational changes by BLI and proteolysis assays on additional related mutants.
(§2) Figure 5 BLI and proteolytic digestion assay of AlaRS mutants with Tanshinone I. Binding sensorgrams for the interaction of Tanshinone I with immobilized AlaRS^R329H (A), AlaRS^G102R (C), AlaRS^R326W (E), and AlaRS^E337K (G). Each sensorgram contains five curves generated from five different concentrations. The KD values are presented as the mean ± SD and experiments were performed in triplicate. The AlaRS^N71Y (B), AlaRS^G102R (D), AlaRS^R326W (F), and AlaRS^E337K (H) proteins (in the presence and absence of Tanshinone I) were incubated with trypsin at different concentrations for three hours before the reactions were quenched, and the products were separated by SDS-PAGE.

AlaRS^R326W = biological target: T2, AlaRS^R326W (Homo sapiens, UniProt P49588, R326W); assay: Proteolytic digestion assay (trypsin, SDS-PAGE); details: three hours
T2 construct: made in house; host or cells: E. coli BL21 (DE3), pET-21a
T2 sequence (P49588 1-968 R326W): T1 sequence (P49588 1-968 N71Y) with Y71N, R326W
Source text: as §1, §2

Compound: Cc1coc2c1C(=O)C(=O)c1c-2ccc2c(C)cccc12 [Tanshinone I]
- Effect on proteolytic fragments / conformation (AlaRS^N71Y): significant conformational change
- Effect on proteolytic fragments / conformation (AlaRS^R326W): distinct proteolytic fragments after Tanshinone I treatment
